Test results: US20260144879A1, “ANTI-VIRAL AND HEPATIC-TARGETED DRUGS” (AI-BIOPHARMA, priority 2019, published 2026)

Key:
[1] = system: HBV (genotype D, serotype ayw, Galibert's strain); test: Quantification of virion associated secreted HBV DNA in supernatant of HBV-infected Primary Human Hepatocytes (PHH) by qPCR, % of replication vs DMSO; format: cell-based, hepatitis B virus; details: 1 μM compound, 7 days treatment, DMSO = 100%; for activity at 1 µM: Hepatitis B virus, Hepatocyte, 168 h, (*) n = 1, read-out: PHH HBV % of replication at 1 μM compared to DMSO
Procedure: (§1) From Methods in Lucifora J. et al. (Direct antiviral properties of TLR ligands against HBV replication in immune-competent hepatocytes, Science Scientific Reports, 2018, 8:5390): • 1) HepaRG cells were cultured, as described previously by Gripon P. et al. (Infection of a human hepatoma cell line by hepatitis B virus. Proc Natl Acad Sci USA, 2002, 99, p 15655-15660) on pages 15655 and 15656, in Williams E medium supplemented with 10% fetal calf serum, 50 U penicillin/streptomycin (Gibco-Invitrogen) ml^−1, […] ml^−1 and 5×10^−7 M hydrocortisone hemisuccinate (Roche Diagnostics and Boehringer Mannheim, respectively). The cell cultures were maintained in a 5% CO2 atmosphere at 37° C. During the proliferation phase, culture medium was renewed every 2 days. For differentiation and infection, cells were maintained for 2 weeks in standard medium and then for at least 2 more weeks in medium supplemented with 1.8-2.0% DMSO (Sigma). • 2) Primary Human Hepatocytes (PHH) were freshly prepared from human liver resection as previously described by Lecluyse, E. L. & Alexandre, E. (Isolation and culture of primary hepatocytes from resected human liver tissue. Methods Mol Biol, 2010, 640, p 57-82, https://doi.org/10.1007/978-1-60761-688-7_3) on page 63 paragraph 3. “Methods” from section 3.1. through 3.6.2. page 77. All experimental procedures were conducted in conformity with French laws and regulations and were approved by the National Ethics Committee. • 3) Cell viability was measured by both neutral red and MTS (CellTiter 96 Aqueous One Solution cell proliferation assay; Promega) tests. • 4) HBV inoculum (genotype D, serotype ayw, Galibert's strain referred as NC_003977.2 at NCBI) was prepared from HepAD38 (see Ladner, S. K. et al., Inducible expression of human hepatitis B virus (HBV) in stably transfected hepatoblastoma cells: a novel system for screening potential inhibitors of HBV replication. Antimicrob Agents Chemother, 1997, 41, p 1715-1720) supernatants by polyethylene-glycol-MW-8000 (PEG8000, SIGMA) precipitation (8% final) as previously described by Luangsay, S. et al. (Early inhibition of hepatocyte innate responses by hepatitis B virus. J Hepatol, 2015, 63, p 1314-1322, https://doi.org/10.1016/j.jhep.2015.07.014).
(§2) Viral stocks with titer reaching at least 1×10^10 viral genome equivalent (vge)/mL were tested endotoxin free.
(§3) Differentiated HepaRG (dHepaRG) or PHH were infected by HBV at a multiplicity of infection of 100-200 vge/cell in culture medium containing 4% PEG 8000 (Sigma) for 16 h at 37° C. in 12- or six-well plates. At the end of the incubation period, cells were washed once with medium and then cultured in Williams E medium containing DMSO as indicated. In general infection was left for 7 days before any treatment was started, to allow replication reaching its maximum. • 5) Infected cell treatment with compounds of interest: • 5a: After 7 days of infection with the virus (day 0 to day 7), the dHepaRG cells were treated (3 treatments: day 7, day 10 and day 12) with a […] of the tested compound (diluted with sterile water from a 10 mM stock DMSO solution) or DMSO as reference negative control for 7 more days. • 5b: After 4 days of infection with the virus (day 0 to day 4), the PHH cells were treated (3 treatments: day 4, day 7 and day 9) with a […] of the tested compound (diluted with sterile water from a 10 mM stock DMSO solution) for 7 more days. • 6) Quantification of virion associated secreted HBV DNA in cell culture supernatant:
(§4) At the end of the experiment (7 days treatment) the supernatant of infected and treated cells (either dHepaRG or PHH or others) is collected. It is diluted 1/4 into sterile water (molecular biology quality) then treated for 30 minutes with RNAse (10 unit) and DNAse (10 unit) to remove non encapsidated material. […]

[2] = system: HBV (genotype D, serotype ayw, Galibert's strain); test: Quantification of virion associated secreted HBV DNA in supernatant of HBV-infected differentiated HepaRG (dHepaRG) cells by qPCR, % of replication vs DMSO; format: cell-based, hepatitis B virus; details: 1 μM compound, 7 days treatment, DMSO = 100%; for activity at 1 µM: Hepatitis B virus, HepaRG, 168 h, read-out: dHepaRG HBV % of replication at 1 μM compared to DMSO
Procedure: as §1, §2, §3, §4

Compound | activity at 1 µM [1] | activity at 1 µM [2] | PHH HBV % of replication at 1 μM compared to DMSO ([1]; (*) n = 1) | dHepaRG HBV % of replication at 1 μM compared to DMSO [2]
CCOC(=O)CC1COP(=O)(CO[C@H](C)Cn2cnc3c(NC(=O)c4ccccc4)ncnc32)OC1 (stereo partly drawn) [Example 19, (R)-ethyl 2-(2-(((1-(6-benzamido-9H-purin-9-yl)propan-2-yl)oxy)methyl)-2-oxo-1,3,2-dioxaphosphinan-5-yl)acetate] | ≤ 30% | ≤ 30% | – | –
CCOC(=O)CC1COP(=O)(CO[C@H](C)Cn2cnc3c(N(C(C)=O)C(C)=O)ncnc32)OC1 (stereo partly drawn) [Example 14, (R)-ethyl 2-(2-(((1-(6-(N-acetylacetamido)-9H-purin-9-yl)propan-2-yl)oxy)methyl)-2-oxo-1,3,2-dioxaphosphinan-5-yl)acetate] | 50 to 80% | 50 to 80% | – | –
CCOC(=O)CCC1COP(=O)(CO[C@H](C)Cn2cnc3c(N)ncnc32)OC1 (stereo partly drawn) [Example 7, (R)-ethyl 3-(2-(((1-(6-amino-9H-purin-9-yl)propan-2-yl)oxy)methyl)-2-oxo-1,3,2-dioxaphosphinan-5-yl)propanoate] | 50 to 80% | 50 to 80% | – | –
CCOC(=O)CC1COP(=O)(CO[C@H](C)Cn2cnc3c(N)ncnc32)OC1 (stereo partly drawn) [Example 2, (R)-ethyl 2-(2-(((1-(6-amino-9H-purin-9-yl)propan-2-yl)oxy)methyl)-2-oxo-1,3,2-dioxaphosphinan-5-yl)acetate] | ≤ 30% | ≤ 30% | – | –
CCCCCCOC(=O)CC1COP(=O)(CO[C@H](C)Cn2cnc3c(N)ncnc32)OC1 (stereo partly drawn) [Example 5b, (R)-hexyl 2-(2-(((1-(6-amino-9H-purin-9-yl)propan-2-yl)oxy)methyl)-2-oxo-1,3,2-dioxaphosphinan-5-yl)acetate] | ≤ 30% | 30 to 50% | – | –
CC(C)OC(=O)CCC1COP(=O)(CO[C@H](C)Cn2cnc3c(N)ncnc32)OC1 (stereo partly drawn) [Example 8, (R)-isopropyl 3-(2-(((1-(6-amino-9H-purin-9-yl)propan-2-yl)oxy)methyl)-2-oxo-1,3,2-dioxaphosphinan-5-yl)propanoate] | 50 to 80% | 50 to 80% | – | –
C[C@H](Cn1cnc2c(N)ncnc21)OCP1(=O)OCC(CC(=O)OC2CCCC2)CO1 (stereo partly drawn) [Example 5, (R)-cyclopentyl 2-(2-(((1-(6-amino-9H-purin-9-yl)propan-2-yl)oxy)methyl)-2-oxo-1,3,2-dioxaphosphinan-5-yl)acetate] | ≤ 30% | ≤ 30% | – | –
CC(C)OC(=O)CCC1COP(=O)(CO[C@H](C)Cn2cnc3c(NC(=O)c4ccccc4)ncnc32)OC1 (stereo partly drawn) [Example 25, (R)-isopropyl 3-(2-(((1-(6-benzamido-9H-purin-9-yl)propan-2-yl)oxy)methyl)-2-oxo-1,3,2-dioxaphosphinan-5-yl)propanoate] | 50 to 80% | 50 to 80% | – | –
CCOC(=O)CC1COP(=O)(CO[C@H](C)Cn2cnc3c(NC(=O)C(C)C)ncnc32)OC1 (stereo partly drawn) [Example 16, (R)-ethyl 2-(2-(((1-(6-isobutyramido-9H-purin-9-yl)propan-2-yl)oxy)methyl)-2-oxo-1,3,2-dioxaphosphinan-5-yl)acetate] | ≤ 30% | ≤ 30% | – | –
COC(=O)CCC1COP(=O)(CO[C@H](C)Cn2cnc3c(N)ncnc32)OC1 (stereo partly drawn) [Example 6, (R)-methyl 3-(2-(((1-(6-amino-9H-purin-9-yl)propan-2-yl)oxy)methyl)-2-oxido-1,3,2-dioxaphosphinan-5-yl)propanoate] | > 80% | 50 to 80% | – | –
CC(C)OC(=O)CC1COP(=O)(CO[C@H](C)Cn2cnc3c(N)ncnc32)OC1 (single isomer, unassigned) [Example 3a] | ≤ 30% | ≤ 30% | – | –
C[C@H](Cn1cnc2c(N)ncnc21)OCP1(=O)OCC(CCC(=O)OC2CCCC2)CO1 (stereo partly drawn) [Example 10, (R)-cyclopentyl 3-(2-(((1-(6-amino-9H-purin-9-yl)propan-2-yl)oxy)methyl)-2-oxo-1,3,2-dioxaphosphinan-5-yl)propanoate] | ≤ 30% | 50 to 80% | – | –
CC(C)OC(=O)CC1COP(=O)(CO[C@H](C)Cn2cnc3c(NC(=O)C(C)C)ncnc32)OC1 (stereo partly drawn) [Example 21a, (R)-isopropyl 2-(2-(((1-(6-isobutyramido-9H-purin-9-yl)propan-2-yl)oxy)methyl)-2-oxido-1,3,2-dioxaphosphinan-5-yl)acetate] | ≤ 30% | ≤ 30% | – | –
CCOC(=O)CC1COP(=O)(CO[C@H](C)Cn2cnc3c(NC(=O)CC)ncnc32)OC1 (stereo partly drawn) [Example 15, (R)-ethyl 2-(2-oxo-2-(((1-(6-propionamido-9H-purin-9-yl)propan-2-yl)oxy)methyl)-1,3,2-dioxaphosphinan-5-yl)acetate] | ≤ 30% | ≤ 30% | – | –
CC1COP(=O)(CO[C@H](C)Cn2cnc3c(N)ncnc32)OC1 (stereo partly drawn) [Example 5c, (R)-2-(((1-(6-amino-9H-purin-9-yl)propan-2-yl)oxy)methyl)-5-methyl-1,3,2-dioxaphosphinane 2-oxide] | 30 to 50% | > 80% | – | –
CCOC(=O)CC1COP(=O)(CO[C@H](C)Cn2cnc3c(NC(=O)CC(C)C)ncnc32)OC1 (stereo partly drawn) [Example 17, (R)-ethyl 2-(2-(((1-(6-(3-methylbutanamido)-9H-purin-9-yl)propan-2-yl)oxy)methyl)-2-oxo-1,3,2-dioxaphosphinan-5-yl)acetate] | ≤ 30% | 30 to 50% | – | –
Nc1ncnc2c1ncn2CCOCP(=O)(O)O [ADF] | – | – | ++ (50% < ++ ≤ 80%) | ++ (50% < ++ ≤ 80%)
CCOC(=O)CC1COP(=O)(CO[C@H](C)Cn2cnc3c(NC(C)=O)ncnc32)OC1 (stereo partly drawn) [Example 13, (R)-ethyl 2-(2-(((1-(6-acetamido-9H-purin-9-yl)propan-2-yl)oxy)methyl)-2-oxo-1,3,2-dioxaphosphinan-5-yl)acetate] | ≤ 30% | 50 to 80% | – | –
COC(=O)CC1COP(=O)(CO[C@H](C)Cn2cnc3c(N)ncnc32)OC1 (stereo partly drawn) [Example 1, (R)-methyl 2-(2-(((1-(6-amino-9H-purin-9-yl)propan-2-yl)oxy)methyl)-2-oxo-1,3,2-dioxaphosphinan-5-yl)acetate] | ≤ 30% | ≤ 30% | – | –
